The values that follow come from patent publication US20240002374A1, “5-MEMBERED HETEROARYLAMINOSULFONAMIDES FOR TREATING CONDITIONS MEDIATED BY DEFICIENT CFTR ACTIVITY” (Genzyme Corporation, priority 2019, published 2024).

For this experiment, the target named is T1, CFTR (primary human bronchial epithelial cells from a ΔF508 homozygous CF donor, CF-HBE cells) (Homo sapiens, UniProt P13569, DEL508-508).
T1 construct: Primary human bronchial epithelial cells from a ΔF508 homozygous CF donor; host or cells: primary human bronchial epithelial cells (CF-HBE) from a ΔF508 homozygous CF donor
Description: TECC24 recording of CFTR-mediated transepithelial chloride transport (TECC24 AUC fold over DMSO @ 3 μM). Type of experiment: cell-based. As to conditions: 3 uM test agent; CF-HBE cells (ΔF508 homozygous) incubated 48 h; ratio of test agent AUC of forskolin-stimulated IEQ to vehicle (DMSO) AUC. As for the experimental part: Example 510: TECC24 AUC Fold Over DMSO @ 3 μM
The effects of a test agent on CFTR-mediated transepithelial chloride transport was measured using TECC24 recording analysis. Test agents were solubilized in DMSO. Solubilized test agents were mixed with incubation medium containing DMEM/F12, Ultroser G (2%; Crescent Chemical, catalog #67042), Hyclone Fetal Clone H (2%; GE Healthcare, catalog #SH30066.02), bovine brain extract (0.25%; Lonza, catalog #CC-4098), insulin (2.5 μg/mL), IL-13 (10 ng/mL), hydrocortisone (20 nM), transferrin (2.5 μg/mL), triiodothyronine (500 nM), ethanolamine (250 nM), epinephrine (1.5 μM), phosphoethanolamine (250 nM), and retinoic acid (10 nM). Primary human bronchial epithelial cells from a ΔF508 homozygous CF donor (CF-HBE cells; from University of North Carolina Cystic Fibrosis Tissue Procurement Center), grown on Transwell HTS 24-well cell culture inserts (Costar, catalog #3378), were exposed to test agents or controls dissolved in incubation medium. The CF-HBE cells were cultured at 36.5° C. for 48 h before TECC24 recordings were performed in the presence or absence of test agent, a positive control or vehicle (DMSO).
Following incubation, the transwell cell culture inserts containing the test agent or control-treated CF-HBE cells were loaded onto a TECC24 apparatus (TECC v7 or MTECC v2; EP Design) to record the transepithelial voltage (VT) and resistance (TEER) using 4 AgCl electrodes per well configured in current-clamp mode. The apical and basolateral bath solutions both contained (in mM) 140 NaCl, 5 KCl, 2 CaCl2), 1 MgCl2, 10 Hepes, and 10 glucose (adjusted to pH 7.4 with NaOH) […]. To inhibit basal Na+ absorption, the ENaC inhibitor benzamil (10 μM) was added to the bath. Then, the adenylate cyclase activator, forskolin (10 μM), was added to the bath to activate CFTR. The forskolin-stimulated Cl− transport was halted by addition of bumetanide (20 μM), an inhibitor of the basolateral chloride co-transporter NKCC1, to the bath to confirm that the detected signal was chloride dependent. VT and TEER recordings were digitally acquired at routine intervals using TECC or MTECC software (EP Design). VT and TEER were transformed into equivalent transepithelial Cl− current (IEQ), and the Area Under the Curve (AUC) of the IEQ time course between forskolin and bumetanide addition is generated using Excel (Microsoft). Efficacy is expressed as the ratio of the test agent AUC divided by vehicle AUC. EC50s based on AUC are generated using the non-linear regression log(agonist) vs. response function in Prism software (GraphPad) with Hill Slope fixed=1.
If a test agent increased the AUC of the forskolin-stimulated IEQ relative to vehicle in CF-HBE cells, and this increase was inhibited by bumetanide, then the test agent was considered a CFTR corrector.

T1 sequence (P13569 with tags, fused parts or gaps DEL508-508): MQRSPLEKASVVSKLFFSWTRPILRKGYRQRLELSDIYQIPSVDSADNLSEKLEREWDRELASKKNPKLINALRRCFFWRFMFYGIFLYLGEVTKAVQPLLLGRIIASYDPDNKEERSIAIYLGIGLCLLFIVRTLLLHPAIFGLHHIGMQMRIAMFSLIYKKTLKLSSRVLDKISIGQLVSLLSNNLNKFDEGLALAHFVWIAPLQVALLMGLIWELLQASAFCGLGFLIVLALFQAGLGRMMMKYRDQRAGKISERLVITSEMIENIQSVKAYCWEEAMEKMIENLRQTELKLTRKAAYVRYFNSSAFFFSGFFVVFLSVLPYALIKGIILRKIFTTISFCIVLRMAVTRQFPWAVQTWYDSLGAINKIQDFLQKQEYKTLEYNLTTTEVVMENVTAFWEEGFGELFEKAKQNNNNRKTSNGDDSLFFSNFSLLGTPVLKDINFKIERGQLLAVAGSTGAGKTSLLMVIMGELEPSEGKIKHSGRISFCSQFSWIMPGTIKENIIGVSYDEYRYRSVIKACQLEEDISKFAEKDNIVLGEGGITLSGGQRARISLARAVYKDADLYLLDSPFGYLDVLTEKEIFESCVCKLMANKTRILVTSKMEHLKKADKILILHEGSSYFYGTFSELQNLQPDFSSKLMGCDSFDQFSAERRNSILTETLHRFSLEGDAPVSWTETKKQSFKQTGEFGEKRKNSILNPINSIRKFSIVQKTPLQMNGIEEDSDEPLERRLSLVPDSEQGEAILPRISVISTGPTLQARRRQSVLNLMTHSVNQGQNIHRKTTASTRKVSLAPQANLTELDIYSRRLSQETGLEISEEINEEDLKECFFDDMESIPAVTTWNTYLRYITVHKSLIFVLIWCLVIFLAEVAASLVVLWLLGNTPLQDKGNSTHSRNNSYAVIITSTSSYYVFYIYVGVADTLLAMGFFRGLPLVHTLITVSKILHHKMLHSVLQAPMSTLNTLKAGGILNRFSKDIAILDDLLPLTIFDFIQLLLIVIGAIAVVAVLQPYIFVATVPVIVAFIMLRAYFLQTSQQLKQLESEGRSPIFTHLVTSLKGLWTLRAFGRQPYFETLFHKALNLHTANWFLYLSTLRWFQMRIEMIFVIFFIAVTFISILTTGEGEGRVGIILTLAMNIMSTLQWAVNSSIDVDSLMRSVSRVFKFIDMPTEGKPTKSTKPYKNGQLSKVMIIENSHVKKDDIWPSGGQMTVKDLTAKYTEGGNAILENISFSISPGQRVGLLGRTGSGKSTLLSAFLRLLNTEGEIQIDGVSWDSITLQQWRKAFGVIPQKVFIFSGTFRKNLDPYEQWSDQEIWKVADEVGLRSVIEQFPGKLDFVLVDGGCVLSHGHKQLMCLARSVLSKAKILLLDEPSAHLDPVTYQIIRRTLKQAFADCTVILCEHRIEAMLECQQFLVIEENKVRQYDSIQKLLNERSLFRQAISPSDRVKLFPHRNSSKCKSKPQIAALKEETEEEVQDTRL

As for `Cc1cccc(C)c1-c1nc(NS(=O)(=O)c2ccccc2)sc1C1=CC(CC(C)(C)C)OCC1` (stereo not shown) [Example 370, N-[4-(2,6-dimethylphenyl)-5-[6-(2,2-dimethylpropyl)-3,6-dihydro-2H-pyran-4-yl]-1,3-thiazol-2-yl]benzenesulfonamide], the “TECC AUC vs. DMSO @ 3 uM” value is on record as “A (“A” refers to AUC > 5)”.

On to `CC(C)Oc1cc(Cl)ccc1-c1nc(NS(=O)(=O)c2cccc(N)c2F)sc1-c1cccc(OCC(F)(F)C(C)(C)C)c1` [Example 382], for which the “TECC AUC vs. DMSO @ 3 uM” value is “A (“A” refers to AUC > 5)”.

Consider `Cc1cccc(C)c1-c1nc(NS(=O)(=O)c2cccc(N(C)C)n2)sc1-c1cccc(OC2CCC(C)(C)C2)c1` (stereo not shown) [Example 358, 6-(dimethylamino)-N-[5-[3-(3,3-dimethylcyclopentyl)oxyphenyl]-4-(2,6-dimethylphenyl)-1,3-thiazol-2-yl]pyridine-2-sulfonamide], for which the “TECC AUC vs. DMSO @ 3 uM” value was “A (“A” refers to AUC > 5)”.

Regarding `CC(C)c1ccccc1-c1nc(NS(=O)(=O)c2cc(N)ccc2F)sc1-c1ccc(F)c(OCC(F)(F)C(C)(C)C)c1` [Example 26, 5-Amino-N-(5-(3-(2,2-difluoro-3,3-dimethylbutoxy)-4-fluorophenyl)-4-(2-isopropylphenyl)thiazol-2-yl)-2-fluorobenzenesulfonamide], the “TECC AUC vs. DMSO @ 3 uM” value is “A (“A” refers to AUC > 5)”.

With `CNc1ccc(F)c(S(=O)(=O)Nc2nc(-c3c(C)cccc3C(F)(F)F)c(-c3cccc(OCCC(C)(C)C)c3)s2)c1` [Example 389, N-[5-[3-(3,3-dimethylbutoxy)phenyl]-4-[2-methyl-6-(trifluoromethyl)phenyl]-1,3-thiazol-2-yl]-2-fluoro-5-(methylamino)benzenesulfonamide], the “TECC AUC vs. DMSO @ 3 uM” value was “A (“A” refers to AUC > 5)”.

`Nc1cccc(S(=O)(=O)Nc2nc(-c3ccc(C(F)(F)F)cc3)c(-c3cc(F)cc(O[C@@H]4CCC(OC(F)(F)F)C4)c3)s2)c1` (single isomer, unassigned) [Example 43B]: the “TECC AUC vs. DMSO @ 3 uM” value is recorded as “A (“A” refers to AUC > 5)”.

As to `O=S(=O)(Nc1nc(-c2ccccc2C(F)(F)F)c(-c2cccc([C@H]3CC[C@H](OC(F)(F)F)C3)c2)s1)c1ccccc1` (single isomer, unassigned) [Example 44A2], the “TECC AUC vs. DMSO @ 3 uM” value is listed as “C (“C” refers to AUC < 2)”.

In the case of `Nc1cccc(S(=O)(=O)Nc2nc(-c3ccccc3C(F)(F)F)c(-c3cccc([C@@H]4CC[C@H](OC(F)(F)F)C4)c3)s2)c1F` [Example 47B1, 3-Amino-2-fluoro-N-(5-(3-((1R,3S)-3-(trifluoromethoxy)cyclopentyl)phenyl)-4-(2-(trifluoromethyl)phenyl)thiazol-2-yl)benzenesulfonamide], the “TECC AUC vs. DMSO @ 3 uM” value is reported as “A (“A” refers to AUC > 5)”.

Consider `CC(C)c1ccccc1-c1nc(NS(=O)(=O)c2cccc(N)c2)sc1-c1cccc(OCCC(C)(C)C)c1` [Example 18, 3-Amino-N-(5-(3-(3,3-dimethylbutoxy)phenyl)-4-(2-isopropylphenyl)thiazol-2-yl)benzenesulfonamide], for which the “TECC AUC vs. DMSO @ 3 uM” value is “A (“A” refers to AUC > 5)”.

For `CC(C)c1ccccc1-c1nc(NS(=O)(=O)c2ccnc(N)c2)sc1-c1cccc(OCCC(C)(C)C)c1` [Example 362, 2-amino-N-[5-[3-(3,3-dimethylbutoxy)phenyl]-4-(2-propan-2-ylphenyl)-1,3-thiazol-2-yl]pyridine-4-sulfonamide], the “TECC AUC vs. DMSO @ 3 uM” value is given as “A (“A” refers to AUC > 5)”.

Regarding `CC(C)Oc1cc(Cl)ccc1-c1nc(NS(=O)(=O)c2ccccc2)sc1-c1ccc(OC(F)F)c(OCCC(C)(C)C)c1` [Example 380, N-[4-(4-chloro-2-propan-2-yloxyphenyl)-5-[4-(difluoromethoxy)-3-(3,3-dimethylbutoxy)phenyl]-1,3-thiazol-2-yl]benzenesulfonamide], the “TECC AUC vs. DMSO @ 3 uM” value was “A (“A” refers to AUC > 5)”.

With `Nc1cccc(S(=O)(=O)Nc2nc(-c3ccccc3C(F)(F)F)c(-c3cccc([C@@H]4CC[C@@H](OC(F)(F)F)C4)c3)s2)c1F` [Example 47B2, 3-Amino-2-fluoro-N-(5-(3-((1R,3R)-3-(trifluoromethoxy)cyclopentyl)phenyl)-4-(2-(trifluoromethyl)phenyl)thiazol-2-yl)benzenesulfonamide], the “TECC AUC vs. DMSO @ 3 uM” value is on record as “C (“C” refers to AUC < 2)”.

In the case of `CC(C)(C)CCOc1cccc(-c2sc(NS(=O)(=O)c3cccc(NC(=O)C4(F)CC4)c3)nc2-c2ccccc2C(F)(F)F)c1` [Example 20, N-(3-(N-(5-(3-(3,3-Dimethylbutoxy)phenyl)-4-(2-(trifluoromethyl)phenyl)thiazol-2-yl)sulfamoyl)phenyl)-1-fluorocyclopropane-1-carboxamide], the “TECC AUC vs. DMSO @ 3 uM” value is reported as “A (“A” refers to AUC > 5)”.

`CC(C)(C)CCOc1cccc(-c2sc(NS(=O)(=O)c3cccc(N)c3)nc2-c2ccc(C(F)(F)F)cc2)c1` [Example 10, 3-Amino-N-(5-(3-(3,3-dimethylbutoxy)phenyl)-4-(4-(trifluoromethyl)phenyl)thiazol-2-yl)benzenesulfonamide]: the “TECC AUC vs. DMSO @ 3 uM” value is listed as “A (“A” refers to AUC > 5)”.

Take `Cc1cccc(C(F)(F)F)c1-c1nc(NS(=O)(=O)c2ccccc2)sc1-c1cc(F)cc(OCCC(C)(C)C)c1` [Example 2, N-(5-(3-(3,3-Dimethylbutoxy)-5-fluorophenyl)-4-(2-methyl-6-(trifluoromethyl)phenyl)thiazol-2-yl)benzenesulfonamide]: the “TECC AUC vs. DMSO @ 3 uM” value is “A (“A” refers to AUC > 5)”.

`Cc1nn(C)cc1S(=O)(=O)Nc1nc(-c2ccccc2C(F)(F)F)c(-c2cccc([C@@H]3CC[C@H](OC(F)(F)F)C3)c2)s1` (single isomer, unassigned) [Example 45B1]: the “TECC AUC vs. DMSO @ 3 uM” value is “A (“A” refers to AUC > 5)”.

With `Cc1cccc(C)c1-c1nc(NS(=O)(=O)c2cccc([S+](C)[O-])c2)sc1-c1cc(F)cc(OCCC(C)(C)C)c1` (stereo not shown) [Example 259, N-[5-[3-(3,3-dimethylbutoxy)-5-fluorophenyl]-4-(2,6-dimethylphenyl)-1,3-thiazol-2-yl]-3-methylsulfinylbenzenesulfonamide], the “TECC AUC vs. DMSO @ 3 uM” value is reported as “B (“B” refers to AUC 2-5)”.

As for `CC(C)c1ccccc1-c1nc(NS(=O)(=O)c2cccc(N[C@H](C(=O)O)C(C)(C)C)n2)sc1-c1cccc(OCCC(C)(C)C)c1` [Example 36, (S)-2-((6-(N-(5-(3-(3,3-Dimethylbutoxy)phenyl)-4-(2-isopropylphenyl)thiazol-2-yl)sulfamoyl)pyridin-2-yl)amino)-3,3-dimethylbutanoic Acid], the “TECC AUC vs. DMSO @ 3 uM” value is “A (“A” refers to AUC > 5)”.

For `Cc1cccc(OC(C)C)c1-c1nc(NS(=O)(=O)c2cccc(N(C)C)n2)sc1-c1cccc(OCCC(C)(C)C)c1` [Example 329, 6-(dimethylamino)-N-[5-[3-(3,3-dimethylbutoxy)phenyl]-4-(2-methyl-6-propan-2-yloxyphenyl)-1,3-thiazol-2-yl]pyridine-2-sulfonamide], the “TECC AUC vs. DMSO @ 3 uM” value is “A (“A” refers to AUC > 5)”.

With `Cc1cccc(C)c1-c1nc(NS(=O)(=O)c2cn(C)nc2C)sc1-c1cccc(OCC(C)(C)C(F)(F)F)c1` [Example 6, N-(4-(2,6-Dimethylphenyl)-5-(3-(3,3,3-trifluoro-2,2-dimethylpropoxy)phenyl)thiazol-2-yl)-1,3-dimethyl-1H-pyrazole-4-sulfonamide], the “TECC AUC vs. DMSO @ 3 uM” value was “B (“B” refers to AUC 2-5)”.

Regarding `Cc1cccc(C)c1-c1nc(NS(=O)(=O)c2cccc(N(C)C)n2)sc1-c1cccc(OCCC(C)(C)C)c1` [Example 334, 6-(dimethylamino)-N-[5-[3-(3,3-dimethylbutoxy)phenyl]-4-(2,6-dimethylphenyl)-1,3-thiazol-2-yl]pyridine-2-sulfonamide], the “TECC AUC vs. DMSO @ 3 uM” value is recorded as “A (“A” refers to AUC > 5)”.

On to `Cc1cccc(C)c1-c1nc(NS(=O)(=O)c2ccsc2)sc1-c1cccc(OCC(C)(C)C)c1` [Example 41, N-(4-(2,6-Dimethylphenyl)-5-(3-(neopentyloxy)phenyl)thiazol-2-yl)thiophene-3-sulfonamide], for which the “TECC AUC vs. DMSO @ 3 uM” value is recorded as “A (“A” refers to AUC > 5)”.
